{
  "source": "patent US12521415B2",
  "about": "“Accelerating repair of mucosal injury using gold(III) compounds” (University of Kentucky Research Foundation, priority 2020, dated 2026)",
  "key": {"[1]": {"test": "Stability of AuPhos in PBS and DMEM", "format": "physicochemical", "source_text": "FIGS. 8A-8J present properties of AuPhos. FIG. 8A includes a chemical structure of AuPhos. FIG. 8B includes extrapolated AuPhos-induced OCR (complex I) in liver mitochondria. […] FIG. 8E provides weight change in AuPhos-treated mice over time. FIG. 8F presents stability of AuPhos in PBS and DMEM. FIG. 8G presents stability of AuPhos in PBS and DMEM. FIG. 8H includes an AuPhos-induced Heat map of DEG (left Panel), obtained using log 2(Fold Change) and p-Value <0.00001 thresholds in MDA-MB-231(107) cells (n=2), and the top six hits of KEGG analysis (right panel). FIG. 8I presents biodistribution and pharmacokinetics of AuPhos in different tissues; Colon, Small bowel, Lung, Kidney, Spleen, Liver, Heart and Blood after single dose (oral, 25 mg/kg) administration of AuPhos at 6 h, 12 h and 24 h. FIG. 8J presents biodistribution and pharmacokinetics of AuPhos in different tissues stool after single dose (oral, 25 mg/kg) administration of AuPhos at 6 h, 12 h and 24 h.\nThis observation was mitochondrial complex I-driven when different substrates, i.e. pyruvate and succinate, were used to measure the OCR. Transcriptomics was used to study global changes in mRNA in response to a 12 h exposure of AuPhos to MDA-MB-231 cells (FIG. 8H)."}, "serum IL-6": {"test_system": "serum IL-6", "test": "Anti-CD3 mAb-induced serum IL-6 in control and AuPhos-treated mice", "format": "in vivo, mouse", "details": "25 mg/kg i.g. every 3d x2; anti-CD3 mAb injected", "experimental": "(§1) FIG. 12A RT-qPCR analysis of cytokines and chemokine genes in AuPhos vs. controls at 9 and 13 days after DSS initiation. FIG. 12B RT-qPCR analysis of cytokines and chemokine genes in AuPhos vs. controls at 9 and 13 days after DSS initiation. FIG. 12C Quantitative RT-PCR analysis of inflammasome markers in D13 DSS mice. Statistical significance was determined using multiple t-test with Holm-Sidak's multiple method. FIG. 12D Serum IL-6 in AuPhos treated (n=4) and control mice, with or without anti-CD3 antibody. ★<0.05; ★★<0.01.\n(§2) Findings in FIG. 9A-9D indicate that AuPhos attenuates tissue inflammation and enhances mucosal healing in DSS colitis mice. To interrogate the effects of AuPhos on Th1 and Treg cytokine production as well as chemokine and inflammasome mediators, mRNA from mice at time points indicated (as in FIG. 9A-9D). […] To test the question of whether AuPhos affected leukocytes directly, control and AuPhos-treated (25 mg/kg i.g. dosed every 3d×2) were injected with anti-CD3 mAb (antiTCR mAb). It is known that CD3 mAb induces a cytokine storm in the periphery and intestine."}, "isolated IEC": {"test_system": "isolated IEC", "test": "Western blot of IEC proteins from control or DSS colitis mice gavaged with AuPhos", "format": "in vivo, mouse", "experimental": "Control or DSS colitis mice were gavaged with vehicle (−) or AuPhos (+) (as in FIG. 2) and sacrificed on D14. WB of isolated IEC proteins indicated are shown in nuclear and membranous protein fractions along with densitometry. (#mice=4 for each condition). *p<0.04. FIG. 16E. Normal human colonic biopsies were incubated at 4° C. with AuPhos×3 hrs. Membranous and nuclear fractions examined for indicated proteins by WB.\nTaking advantage of the unique electrochemical properties and excellent safety profile of gold in humans, a stable gold compound was designed to modulate mitochondrial processes including oxidative phosphorylation (OXPHOS). […] IEC (FIG. 16C). […] These examples illustrate that AuPhos has utility for “gut selective” IBD therapy."}, "DSS colitis mice": {"test_system": "DSS colitis mice", "test": "DSS-induced colitis in mice treated with AuPhos", "format": "in vivo, mouse", "details": "for colonic ulceration (tissue histology): left colon", "experimental": "FIG. 9A includes results for changes with 2% DSS given for 7 days followed by water. AuPhos was started (25 mg/kg q 3D) on DAY1. Body Wt changes shown as means of each group (n=6) with SEM for 9 and 13 day trials. FIG. 9B includes results for changes with 2% DSS given for 7 days followed by water. AuPhos was started (25 mg/kg q 3D) on DAY1. Body Wt changes shown as means of each group (n=6) with SEM for 9 and 13 day trials as shown, with corresponding DAI. FIG. 9C includes results for changes with 2% DSS given for 7 days followed by water. AuPhos was started (25 mg/kg q 3D) on DAY1. Histological score in DSS-colitis mice 7 and 13 days after DSS initation. Statistical significance was determined using 2-way ANOVA with Sidak's multiple comparison test (A,B) or unpaired t-test (C). FIG. 9D includes images showing results for changes with 2% DSS given for 7 days followed by water. AuPhos was started (25 mg/kg q 3D) on DAY1. Representative images of H&E staining of whole tissue scan from 13-day study. ★★<0.01, ★★★<0.0001.\nas §1\nFIGS. 17A-17F illustrate that AuPhos improves DSS-induced colitis. Results shown are for changes with 2% DSS given for 7 days followed by water. AuPhos was started (25 mg/kg q3D) on DAY1. FIG. 17A. Body Wt changes shown as means of each group (n=6) with SEM for 15 day trial as shown, with FIG. 17B. corresponding DAI. FIG. 17C. Histological score in DSS-colitis mice after Day−7, −11, −13, and −15 of DSS initiation. Statistical significance was determined using 2-way ANOVA with Sidak's multiple comparison test (A,B) or unpaired t-test (C) FIG. 17D. Representative images of H&E staining of whole tissue scan from 13-day study. E. Effect of AuPhos on intestinal permeability using FITC-dextran in DSS-colitis mice (n=5) in a separate D7, D9, D11, D13 and D15 experiment. F. RT-qPCR analysis of cytokines and chemokines genes in AuPhos vs. vehicle treated DSS colitis mice from 9-day, 13-day and 15-day studies. ß<0.05, ßß<0.01, ßßß<0.0001.\nGiven the potential that AuPhos provides a novel approach to IBD therapy, DSS colitis mice were given (2% DSS×7D) 25 mg/kg i.g. AuPhos every 3 days (from the start of DSS) until sacrifice.\nas §2\nThe efficacy of AuPhos in the treatment of colitis. Given the potential that AuPhos provides a novel approach to IBD therapy, DSS colitis mice (2% DSS×7D) were given intragastric (i.g.) AuPhos (25 mg/kg) every 3 days (from the start of DSS) until sacrifice."}, "[2]": {"details": "2% DSS x7D, 25 mg/kg i.g. every 3 days, 9 and 13 day trials"}, "[3]": {"details": "2% DSS x7D, 25 mg/kg i.g. every 3 days, 15 day trial"}, "[4]": {"details": "DSS colitis mice, 9 and 13 days after DSS initiation, RT-qPCR"}},
  "data": [
    {"smiles": "[Cl][Au]1([c]2ccccc2Cc2ccccn2)[P](c2ccccc2)(c2ccccc2)c2ccccc2[P]1(c1ccccc1)c1ccccc1", "note": "[AuPhos]", "values": [
      {"measurement": "solution stability", "setting": "[1]", "result": "excellent solution stability"},
      {"measurement": "anti-CD3 induced increases in serum IL-6", "setting": "serum IL-6", "result": "did not affect"},
      {"measurement": "Nrf2 and PGC1α levels in IEC", "setting": "isolated IEC; WB", "result": "increased Nrf2 and PGC1α levels"},
      {"measurement": "mitochondrial complex levels in IEC", "setting": "isolated IEC; control and DSS colitis mice, sacrificed D14, WB", "result": "increases mitochondrial complex levels"},
      {"measurement": "DAI", "setting": "DSS colitis mice; [2]", "result": "significantly reduces"},
      {"measurement": "weight (Wt) loss", "setting": "DSS colitis mice; [2]", "result": "significantly reduces"},
      {"measurement": "colonic ulceration (tissue histology)", "setting": "DSS colitis mice; 2% DSS x7D, 25 mg/kg i.g. every 3 days, 13-day study", "result": "resolution of colonic ulceration throughout the left colon"},
      {"measurement": "disease activity index (DAI)", "setting": "DSS colitis mice; [3]", "result": "significantly reduces"},
      {"measurement": "weight (Wt) loss", "setting": "DSS colitis mice; [3]", "result": "significantly reduces"},
      {"measurement": "tissue histologic indices (colitis score)", "setting": "DSS colitis mice; 2% DSS x7D, 25 mg/kg i.g. every 3 days, at 13D", "result": "significant decreases"},
      {"measurement": "tissue histology indices (colitis score)", "setting": "DSS colitis mice; 2% DSS x7D, 25 mg/kg i.g. every 3 days, at D11, 13 and 15", "result": "significant decreases"},
      {"measurement": "colonic ulceration (tissue histology)", "setting": "DSS colitis mice; 15 day trial series", "result": "resolution of colonic ulceration throughout the left colon"},
      {"measurement": "markers of inflammasome signaling mRNA", "setting": "DSS colitis mice; D13 DSS mice, RT-PCR", "result": "reduces"},
      {"measurement": "pro-inflammatory cytokine mRNA and chemokine-mediators of colitis (mucosal mRNA)", "setting": "DSS colitis mice; DSS colitis mice, 9-day, 13-day and 15-day studies, RT-qPCR", "result": "reduces"},
      {"measurement": "chemokine-mediators of colitis mRNA (MCP-1, I-TAC and IP-10)", "setting": "DSS colitis mice; [4]", "result": "reduces"},
      {"measurement": "pro-inflammatory cytokine mRNA (IFNγ, TNF, IL-6 and IL-10)", "setting": "DSS colitis mice; [4]", "result": "reduces"},
      {"measurement": "acute colitis", "setting": "DSS colitis mice; DSS mice", "result": "attenuates acute colitis"}
    ]}
  ]
}
